Numbers after ± are expanded uncertainties.
Assay: molar heat capacity at constant pressure
Details: 1943 K; 101.33 kPa; Liquid; Levitation methods

SMILES: [Ti] [titanium]
- molar heat capacity at constant pressure: 44.9 ± 4.3 J/K/mol

Reference: the NIST ThermoML archive (doi:10.1016/j.jct.2018.12.002)
